Data reported in patent publication US8344028B2, “Gamma-amino-butyric acid derivatives as GABAB receptor ligands” (XenoPort, Inc., priority 2009, dated 2013).
Counter-ions that a name gives are not always drawn.

How the values were obtained:
[1] = target: T1, recombinant human GABABR1a2 (Homo sapiens, UniProt Q9UBS5); experiment: cAMP assay for determining GABAB receptor agonist activity; type: cell-based; settings: cells expressing recombinant human GABABR1a2; read-out: cAMP EC50
T1 construct: expressed in transfected cells; host or cells: HEK cells
T1 sequence (Q9UBS5 15-961 limits assumed): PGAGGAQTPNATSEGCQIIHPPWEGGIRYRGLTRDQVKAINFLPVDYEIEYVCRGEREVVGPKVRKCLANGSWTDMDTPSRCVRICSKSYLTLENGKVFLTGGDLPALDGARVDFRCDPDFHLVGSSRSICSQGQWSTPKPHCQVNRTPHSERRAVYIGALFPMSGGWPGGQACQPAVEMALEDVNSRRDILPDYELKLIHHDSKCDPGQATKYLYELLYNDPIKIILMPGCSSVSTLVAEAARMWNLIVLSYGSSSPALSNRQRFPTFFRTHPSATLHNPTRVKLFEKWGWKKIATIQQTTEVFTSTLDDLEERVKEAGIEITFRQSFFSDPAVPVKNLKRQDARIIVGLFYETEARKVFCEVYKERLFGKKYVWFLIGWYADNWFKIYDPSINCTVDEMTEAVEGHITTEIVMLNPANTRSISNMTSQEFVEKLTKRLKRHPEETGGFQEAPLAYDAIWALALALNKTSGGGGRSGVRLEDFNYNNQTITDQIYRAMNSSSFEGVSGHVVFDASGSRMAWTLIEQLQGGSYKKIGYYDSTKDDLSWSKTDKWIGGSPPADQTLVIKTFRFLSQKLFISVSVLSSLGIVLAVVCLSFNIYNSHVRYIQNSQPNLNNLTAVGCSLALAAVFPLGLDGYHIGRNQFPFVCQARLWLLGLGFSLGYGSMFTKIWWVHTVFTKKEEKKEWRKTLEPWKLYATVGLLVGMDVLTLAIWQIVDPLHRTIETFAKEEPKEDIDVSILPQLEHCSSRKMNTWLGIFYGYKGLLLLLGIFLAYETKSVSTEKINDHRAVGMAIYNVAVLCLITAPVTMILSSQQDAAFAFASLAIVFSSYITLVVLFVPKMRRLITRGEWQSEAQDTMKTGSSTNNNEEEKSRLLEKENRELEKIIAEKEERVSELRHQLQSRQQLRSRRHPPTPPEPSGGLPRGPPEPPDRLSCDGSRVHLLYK
T1 sequence (O75899 42-941 partner): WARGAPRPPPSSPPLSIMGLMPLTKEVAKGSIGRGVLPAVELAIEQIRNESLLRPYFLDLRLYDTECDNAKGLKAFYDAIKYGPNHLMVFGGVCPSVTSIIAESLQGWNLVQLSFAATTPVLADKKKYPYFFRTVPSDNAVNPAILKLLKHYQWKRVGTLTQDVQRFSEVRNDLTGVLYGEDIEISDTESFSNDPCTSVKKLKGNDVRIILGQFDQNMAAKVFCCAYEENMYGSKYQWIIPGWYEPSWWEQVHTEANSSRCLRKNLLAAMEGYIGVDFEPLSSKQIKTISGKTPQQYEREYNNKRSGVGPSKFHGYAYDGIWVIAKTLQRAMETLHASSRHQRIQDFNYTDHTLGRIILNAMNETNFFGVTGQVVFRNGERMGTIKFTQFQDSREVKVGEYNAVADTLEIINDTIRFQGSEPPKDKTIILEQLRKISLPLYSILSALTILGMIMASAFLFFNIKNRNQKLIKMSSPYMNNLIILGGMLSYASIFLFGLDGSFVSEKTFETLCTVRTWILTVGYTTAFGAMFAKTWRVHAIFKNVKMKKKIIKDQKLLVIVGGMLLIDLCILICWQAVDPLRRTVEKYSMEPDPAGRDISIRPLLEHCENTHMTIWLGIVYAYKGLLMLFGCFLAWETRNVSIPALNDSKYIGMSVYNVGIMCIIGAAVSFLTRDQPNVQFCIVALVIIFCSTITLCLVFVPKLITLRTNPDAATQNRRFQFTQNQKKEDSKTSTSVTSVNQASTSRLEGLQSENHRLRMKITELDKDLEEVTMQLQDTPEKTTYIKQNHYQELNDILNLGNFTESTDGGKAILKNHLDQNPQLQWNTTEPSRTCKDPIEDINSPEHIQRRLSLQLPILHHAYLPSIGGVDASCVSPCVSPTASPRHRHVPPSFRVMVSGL
Protocol: The following procedure was used to determine the level of intracellular cAMP. Recombinant HEK cells expressing the GABAB R1a2 receptor were used in the experiments. cAMP levels were measured using a cAMP XS^+ HitHunter™ Chemiluminescence Assay Kit (90-0075-02, GE Healthcare Biosciences Corp.). Cells were seeded overnight at 5,000 cells per well, in black, clear bottom 96-well plates. The following morning, cells were washed twice with 100 μL PBS per well. Forskolin was weighed out and dissolved in DMSO to a final concentration 100 mM. One-hundred (100) μM forskolin solutions were prepared in PBS with and without test compound at 1-times final concentration. Thirty (30) μL of the test solutions were added to the wells and incubated for 1 h at room temperature. The cAMP concentration was determined according to the protocol described in the cAMP assay kit, maintaining the plate at room temperature and in the dark. Two hours after the final kit reagent was added, the plate bottom was covered with black tape, and the plate read using a 1450 MicroBeta Trilux microplate scintillation and luminescence counter (PerkinElmer, Waltham, Mass.). Each well was read for 6 seconds. The untransformed data was then analyzed.

[2] = target: T2, GABAB receptor (Rattus norvegicus, UniProt Q9Z0U4); experiment: [3H]CGP54626 rat brain GABAB receptor binding assay; settings: [3H]CGP54626 rat brain binding assay
T2 construct: from tissue; host or cells: rat cerebral cortex membranes
T2 sequence (Q9Z0U4 20-960): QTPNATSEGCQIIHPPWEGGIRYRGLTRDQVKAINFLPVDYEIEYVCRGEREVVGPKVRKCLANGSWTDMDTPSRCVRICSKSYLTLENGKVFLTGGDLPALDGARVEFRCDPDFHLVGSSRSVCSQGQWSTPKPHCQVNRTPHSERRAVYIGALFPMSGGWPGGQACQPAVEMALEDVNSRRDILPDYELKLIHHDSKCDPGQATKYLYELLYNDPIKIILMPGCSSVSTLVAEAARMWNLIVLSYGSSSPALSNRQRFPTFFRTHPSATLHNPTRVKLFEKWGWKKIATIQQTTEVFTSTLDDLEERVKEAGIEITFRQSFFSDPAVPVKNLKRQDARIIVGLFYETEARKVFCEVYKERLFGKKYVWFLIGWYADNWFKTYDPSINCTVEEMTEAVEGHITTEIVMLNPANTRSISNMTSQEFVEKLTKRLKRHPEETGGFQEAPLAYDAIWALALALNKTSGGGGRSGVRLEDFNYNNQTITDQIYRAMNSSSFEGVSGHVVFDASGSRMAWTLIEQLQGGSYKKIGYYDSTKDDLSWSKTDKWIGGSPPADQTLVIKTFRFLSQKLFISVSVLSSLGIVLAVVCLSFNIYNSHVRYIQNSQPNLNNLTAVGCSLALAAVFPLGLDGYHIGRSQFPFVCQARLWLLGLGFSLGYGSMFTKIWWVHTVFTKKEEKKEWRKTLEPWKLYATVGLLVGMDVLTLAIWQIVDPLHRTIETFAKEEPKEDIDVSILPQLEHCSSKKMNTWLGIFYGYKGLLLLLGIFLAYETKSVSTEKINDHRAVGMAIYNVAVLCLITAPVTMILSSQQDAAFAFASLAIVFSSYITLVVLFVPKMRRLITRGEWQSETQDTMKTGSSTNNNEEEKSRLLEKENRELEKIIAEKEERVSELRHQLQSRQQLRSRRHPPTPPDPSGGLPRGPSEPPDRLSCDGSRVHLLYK
T2 sequence (O88871 41-940 partner): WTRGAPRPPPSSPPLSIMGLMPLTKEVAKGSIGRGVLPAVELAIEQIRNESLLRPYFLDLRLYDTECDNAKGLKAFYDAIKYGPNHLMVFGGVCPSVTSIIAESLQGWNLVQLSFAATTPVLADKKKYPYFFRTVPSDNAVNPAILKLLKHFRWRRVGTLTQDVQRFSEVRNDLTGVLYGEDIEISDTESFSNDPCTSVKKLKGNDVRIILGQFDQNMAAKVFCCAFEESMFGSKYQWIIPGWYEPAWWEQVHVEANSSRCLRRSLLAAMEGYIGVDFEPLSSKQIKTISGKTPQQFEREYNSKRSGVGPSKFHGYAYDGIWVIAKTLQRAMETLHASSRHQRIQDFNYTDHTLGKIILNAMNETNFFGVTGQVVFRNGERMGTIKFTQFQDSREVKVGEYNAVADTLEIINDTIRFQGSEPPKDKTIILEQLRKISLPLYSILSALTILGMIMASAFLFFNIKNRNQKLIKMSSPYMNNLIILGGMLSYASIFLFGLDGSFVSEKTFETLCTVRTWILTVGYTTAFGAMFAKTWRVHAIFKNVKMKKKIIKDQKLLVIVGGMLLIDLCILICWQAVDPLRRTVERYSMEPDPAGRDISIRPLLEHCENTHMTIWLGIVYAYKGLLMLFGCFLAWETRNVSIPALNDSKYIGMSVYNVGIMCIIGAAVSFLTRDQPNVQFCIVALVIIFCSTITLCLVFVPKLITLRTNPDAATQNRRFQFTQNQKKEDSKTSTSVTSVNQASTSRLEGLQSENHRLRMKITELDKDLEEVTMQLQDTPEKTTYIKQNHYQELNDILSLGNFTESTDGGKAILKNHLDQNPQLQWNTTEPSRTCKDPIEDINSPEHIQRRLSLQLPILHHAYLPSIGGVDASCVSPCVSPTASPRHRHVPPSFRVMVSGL
Protocol: An assay using rat cerebral cortex membranes was used to determine the affinity of GABAB receptor ligands for the GABAB receptor.
An assay buffer of 50 mM Tris pH 7.4 was prepared with 100 μM of isoguvacine, to block GABAA interactions. The assay buffer with isoguvacine was used for dilution of membranes, compounds, and radiolabel.
Rat cerebral cortex membranes were diluted in assay buffer at 1 mg/mL and aliquoted into a 96-well plate at 900 μL/well. Buffer or test compound were added at 20-times final concentration in the buffer at 50 μL/well. Membranes and test compounds or buffer were incubated for 10 min. at room temperature. Radiolableled [S—(R*,R*)]-[3-[[1-(3,4-dichlorophenyl)ethyl]amino]-2-hydroxypropyl](cyclohexylmethyl) phosphinic acid (CGP54626) was then added at 50 μL/well in the buffer at 1-10 nM concentration in 50 μl. The mixture was incubated for 15 min. at room temperature. The assay mixture was filtered using Brandell filtration apparatus and GFB filters, washed twice with 3 mL of 4° C., 50 mM Tris pH 7.4, buffer without isoguvacine. The filters were then dried at room temperature and the dried filters punched out and placed in individual vials. Three (3) mL of scintillation fluid was added to each vial and the radiolabel counted on the scintillation counter. The inverse amount of radiolabel was indicative of binding of a test compound to the GABAB receptor.

[3] = target: T1, recombinant human GABABR1a2; experiment: Ca2+ assay for determining GABAB receptor agonist activity; type: cell-based; settings: cells expressing recombinant human GABABR1a2
Protocol: The following procedure was used to determine the GABAB receptor agonist activity of a compound as reflected by activation of Ca^2+ signaling. HEK TREx cells expressing GABABR1a2 under tetracycline induction control, and Gqi chimeric protein (expressed constitutively), allowing GABABR coupling through the Ca^2+ signaling pathway were used in the experiments.
Cells were seeded in media containing tetracycline overnight at 100,000 cells/well, in black, clear-bottom, 96-well plates. The following morning, cells were washed twice with 100 μL HBSS buffer per well. Fluorescent Ca^2+ indicator dye was prepared using the materials and procedure described in the F362056 Fluo-4 NW Calcium Assay Kit (Invitrogen, Carlsbad, Calif.). Ten (10) mL of kit buffer and 100 μl of kit Probenecid were added to individual kit dye vials, and rolled back and forth several times to dissolve the dye. Cells were then loaded into the dye solution at 50 μL per well. The cells and dye were incubated for 30 min at 37° C., and then incubated for an additional 30 min at room temperature in the dark. Test compounds are dissolved in HBSS buffer at twice final concentration. Duplicate wells were used for each unique condition. Solution containing the test compound was added to the wells using a FLEXStation II (Molecular Devices, Sunnyvale, Calif.). Using the instrument in kinetic mode in which each well was read every 2 sec over a total collection time of 50 sec fluorescence was measured using an excitation wavelength 494 nm and a detection wavelength of 516 nm. A normalized fluorescence value for each well was calculated using the following procedure. The difference in fluorescence at 35 sec (usually representing maximal response) and at 15 sec (a time point prior to addition of test compounds) was calculated, divided by the fluorescence at 15 sec, and the result multiplied by 100. The final value represented the percent increase in fluorescence relative to the fluorescence at 15 sec. Data was analyzed using standard procedures.

[4] = target: GABAB receptor (Homo sapiens, UniProt Q9UBS5); experiment: GABAB receptor agonist or partial agonist activity by binding, electrophysiology, cAMP and/or Ca2+ assay methods (Examples 83-86); type: cell-based
GABAB receptor (Homo sapiens, UniProt Q9UBS5), sequence (Q9UBS5 20-961): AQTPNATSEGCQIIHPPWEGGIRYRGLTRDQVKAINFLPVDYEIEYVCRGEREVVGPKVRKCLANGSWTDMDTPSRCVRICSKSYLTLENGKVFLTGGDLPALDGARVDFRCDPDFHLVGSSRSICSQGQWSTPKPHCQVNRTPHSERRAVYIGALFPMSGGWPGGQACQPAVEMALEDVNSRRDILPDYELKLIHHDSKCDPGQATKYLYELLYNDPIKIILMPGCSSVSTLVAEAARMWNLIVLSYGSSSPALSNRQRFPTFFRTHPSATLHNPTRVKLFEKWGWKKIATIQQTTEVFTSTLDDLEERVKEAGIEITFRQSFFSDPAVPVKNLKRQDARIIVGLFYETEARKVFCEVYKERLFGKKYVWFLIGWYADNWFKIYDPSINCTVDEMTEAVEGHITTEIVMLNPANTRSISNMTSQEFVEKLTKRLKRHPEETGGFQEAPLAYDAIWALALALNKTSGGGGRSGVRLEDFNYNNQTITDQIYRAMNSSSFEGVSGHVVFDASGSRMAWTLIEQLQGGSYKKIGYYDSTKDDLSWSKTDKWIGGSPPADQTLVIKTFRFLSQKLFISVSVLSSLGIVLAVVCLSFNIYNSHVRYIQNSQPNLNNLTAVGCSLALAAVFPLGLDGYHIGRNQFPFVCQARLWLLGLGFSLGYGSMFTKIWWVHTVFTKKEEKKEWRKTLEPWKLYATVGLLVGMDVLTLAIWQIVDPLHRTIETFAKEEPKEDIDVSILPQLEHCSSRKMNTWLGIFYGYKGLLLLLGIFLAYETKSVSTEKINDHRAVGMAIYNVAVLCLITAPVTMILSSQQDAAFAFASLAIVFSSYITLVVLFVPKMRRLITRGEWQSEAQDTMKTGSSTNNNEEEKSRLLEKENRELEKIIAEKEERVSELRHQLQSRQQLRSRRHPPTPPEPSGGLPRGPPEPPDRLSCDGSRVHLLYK
GABAB receptor (Homo sapiens, UniProt Q9UBS5), sequence (O75899 42-941 partner): as the sequence (O75899 42-941 partner) above
Procedure, shortened: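 Binding: rat cortex membranes in 50 mM Tris pH 7.4 with 100 μM isoguvacine were preincubated 10 min at RT with compound, then radiolabeled CGP54626 (1-10 nM) was added; filtered and scintillation-counted. cAMP: GABAB R1a2 HEK cells, 1 h RT with 100 μM forskolin, chemiluminescence.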

EC50 [1] [nM] | IC50 [2] [nM] | EC50 [3] [nM] | GABAB receptor agonist or partial agonist activity [4] | Compound
< 100 | < 25000 | < 700 |  | NC[C@H](CC(=O)O)c1ccc(Cl)c(-c2cc(C(=O)O)co2)c1 [5-{5-[(1R)-2-amino-1-(carboxymethyl)ethyl]-2-chlorophenyl}furan-3-carboxylic acid hydrochloride]
< 100 | < 25000 | < 700 |  | NC[C@H](CC(=O)O)c1ccc(Cl)c(-c2cc(C(=O)O)cs2)c1 [5-{5-[(1R)-2-amino-1-(carboxymethyl)ethyl]-2-chlorophenyl}thiophene-3-carboxylic acid hydrochloride]
< 100 | < 25000 | < 700 |  | C[C@@H](Oc1cc([C@H](CN)CC(=O)O)ccc1Cl)c1ccncc1 [(3R)-3-[3-((1R)-1-(4-pyridyl)ethoxy)-4-chlorophenyl]-4-aminobutanoic acid hydrochloride]
< 100 | < 25000 | < 700 |  | NC[C@H](CC(=O)O)c1ccc(Cl)c(OCc2cncs2)c1 [(3R)-4-amino-3-[4-chloro-3-(1,3-thiazol-5-ylmethoxy)phenyl]butanoic acid hydrochloride]
< 100 | < 25000 | < 700 |  | N#Cc1cc(-c2cc([C@H](CN)CC(=O)O)ccc2Cl)cs1 [(3R)-4-amino-3-[4-chloro-3-(5-cyano(3-thienyl))phenyl]butanoic acid hydrochloride]
< 100 | < 25000 | < 700 |  | CN(C)C(=O)c1ccc(-c2cc([C@H](CN)CC(=O)O)ccc2Cl)s1 [(3R)-4-amino-3-{3-[5-(N,N-dimethylcarbamoyl)(2-thienyl)]-4-chlorophenyl}butanoic acid hydrochloride]
 |  |  | agonist or partial agonist activity | Cl.NC[C@H](CC(=O)O)c1ccc(Cl)c(-c2cccc(CC(=O)O)c2)c1 [Example 43, (3R)-4-Amino-3-{3-[3-(carboxymethyl)phenyl]-4-chlorophenyl}butanoic acid hydrochloride]
 |  |  | agonist or partial agonist activity | Cl.NC[C@H](CC(=O)O)c1ccc(Cl)c(-c2ccc(C(=O)O)cc2Cl)c1 [Example 44, 4-{5-[(1R)-2-Amino-1-(carboxymethyl)ethyl]-2-chlorophenyl}-3-chlorobenzoic acid hydrochloride]
 |  |  | agonist or partial agonist activity | Cl.NC[C@H](CC(=O)O)c1ccc(Cl)c(-c2cncc(C(=O)O)c2)c1 [Example 48, 5-{5-[(1R)-2-Amino-1-(carboxymethyl)ethyl]-2-chlorophenyl}pyridine-3-carboxylic acid hydrochloride]
 |  |  | agonist or partial agonist activity | Cl.N#Cc1cc(-c2cc([C@H](CN)CC(=O)O)ccc2Cl)ccc1Cl [Example 49, (3R)-4-Amino-3-[4-chloro-3-(4-chloro-3-cyanophenyl)phenyl]butanoic acid hydrochloride]

More lines, now with the values behind:

Compound | EC50 [1] [nM] | IC50 [2] [nM] | EC50 [3] [nM] | GABAB receptor agonist or partial agonist activity [4]
NC[C@H](CC(=O)O)c1ccc(Cl)c(OCCc2ccncc2)c1 [(3R)-4-amino-3-[4-chloro-3-(2-(4-pyridyl)ethoxy)phenyl]butanoic acid hydrochloride] | < 100 | < 25000 | < 700 | 
Cc1cc(COc2cc([C@H](CN)CC(=O)O)ccc2Cl)ccn1 [(3R)-4-amino-3-{4-chloro-3-[(2-methyl(4-pyridyl))methoxy]phenyl}butanoic acid hydrochloride] | < 100 | < 25000 | < 700 | 
NC[C@H](CC(=O)O)c1ccc(Cl)c(OCc2ccncc2Cl)c1 [(3R)-4-amino-3-{4-chloro-3-[(3-chloro(4-pyridyl))methoxy]phenyl}butanoic acid hydrochloride] | < 100 | < 25000 | < 700 | 
Cl.NC[C@H](CC(=O)O)c1ccc(Cl)c(-c2ccccc2)c1 [Example 39, (3R)-4-Amino-3-(4-chloro-3-phenyl-phenyl)butanoic acid hydrochloride] |  |  |  | agonist or partial agonist activity
CN(C)c1cccc(-c2cc([C@H](CN)CC(=O)O)ccc2Cl)c1.Cl [Example 41, (3R)-4-Amino-3-{3-[3-(dimethylamino)phenyl]-4-chlorophenyl}butanoic acid hydrochloride] |  |  |  | agonist or partial agonist activity
NC[C@H](CC(=O)O)c1ccc(Cl)c(-c2ccc([N+](=O)[O-])cc2)c1 [Example 47, (3R)-4-Amino-3-[4-chloro-3-(4-nitrophenyl)phenyl]butanoic acid hydrochloride] | < 100 | < 25000 | < 700 | 
Cl.NC[C@H](CC(=O)O)c1cccc(-c2cccc(C(=O)O)c2)c1 [Example 51, 3-{3-[(1R)-2-Amino-1-(carboxymethyl)ethyl]phenyl}benzoic acid hydrochloride] |  |  |  | agonist or partial agonist activity
Cl.N#Cc1cccc(-c2cc([C@H](CN)CCO)ccc2Cl)c1 [Example 53, 3-{5-[(1R)-1-(Aminomethyl)-3-hydroxypropyl]-2-chlorophenyl}benzenecarbonitrile hydrochloride] |  |  |  | agonist or partial agonist activity
CS(=O)(=O)c1cccc(-c2cc([C@H](CN)CC(=O)O)ccc2Cl)c1.Cl [Example 54, (3R)-4-Amino-3-{4-chloro-3-[3-(methylsulfonyl)phenyl]phenyl}butanoic acid hydrochloride] |  |  |  | agonist or partial agonist activity
Cl.NC[C@H](CC(=O)O)c1ccc(Cl)c(NCc2ccccn2)c1 [Example 58] |  |  |  | agonist or partial agonist activity
Cn1cncc1CNc1cc([C@H](CN)CC(=O)O)ccc1Cl [Example 59, (3R)-4-Amino-3-(4-chloro-3-{[(1-methylimidazol-5-yl)methyl]amino}phenyl)butanoic acid] |  |  |  | agonist or partial agonist activity
Cl.NC[C@H](CC(=O)O)c1ccc(Cl)c(NCc2ccc(C(=O)O)cc2)c1 [Example 63, 4-[({5-[(1R)-2-Amino-1-(carboxymethyl)ethyl]-2-chlorophenyl}amino)methyl]benzoic acid hydrochloride] |  |  |  | agonist or partial agonist activity
Cl.NC[C@H](CC(=O)O)c1ccc(Cl)c(NCc2ccoc2)c1 [Example 64, (3R)-4-Amino-3-{4-chloro-3-[(3-furylmethyl)amino]phenyl}butanoic acid hydrochloride] |  |  |  | agonist or partial agonist activity
(3R)-4-amino-3-{4-chloro-3-[(2-pyridyl)carbonylamino]phenyl)carbonylamino]phenyl}butanoic acid |  |  |  | agonist or partial agonist activity
